This assay deals with CD2F1 mice, L1210 leukemia ip, survival T/C. Put plainly: NCI In Vivo Anticancer Drug Screen. Data for tumor model L1210 Leukemia (intraperitoneal) in CD2F1 (CDF1) mice. Conditions: higher = longer survival. A digest of the protocol: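 Compound-dosed mice with transplantable tumor versus matched vehicle controls; endpoint ratio T/C reported.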
[1] abbreviates: endpoint: mean survival time, dose: 100.0 mg/kg/injection, schedule: Q01DX009 (ip), vehicle: saline with Tween-80.
Setting [2] is: endpoint: mean survival time, dose: 200.0 mg/kg/injection, schedule: Q01DX009 (ip), vehicle: saline with Tween-80.
Where [3] appears, read: endpoint: mean survival time, dose: 400.0 mg/kg/injection, schedule: Q01DX009 (ip), vehicle: saline with Tween-80.
Where [4] appears, read: endpoint: mean survival time, dose: 200.0 mg/kg/injection, schedule: Q04DX003 (ip), vehicle: saline with Tween-80.
The mark [5] stands for this setting: endpoint: mean survival time, dose: 400.0 mg/kg/injection, schedule: Q04DX003 (ip), vehicle: saline with Tween-80.
The mark [6] stands for this setting: endpoint: mean survival time, dose: 100.0 mg/kg/injection, schedule: Q04DX003 (ip), vehicle: saline with Tween-80.
Where [7] appears, read: endpoint: mean survival time, dose: 50.0 mg/kg/injection, schedule: Q01DX009 (ip), vehicle: saline with Tween-80.
Setting [8] is: endpoint: mean survival time, dose: 100.0 mg/kg/injection, schedule: Q01DX001 (ip), vehicle: saline with Tween-80.
Setting [9] is: endpoint: mean survival time, dose: 200.0 mg/kg/injection, schedule: Q01DX001 (ip), vehicle: saline with Tween-80.
Where [10] appears, read: endpoint: mean survival time, dose: 400.0 mg/kg/injection, schedule: Q01DX001 (ip), vehicle: saline with Tween-80.

This passage reports T/C results from PubChem BioAssay AID256 (DTP/NCI, 2004).

“And” between values parts separate entries of the source, which are not always exact repeats. Identical values can stand only once. Toxic doses and inconclusive results are not listed.

In the case of `O=C1CCC(c2ccccc2)=NN1c1ccccc1`, the T/C (endpoint: mean survival time, dose: 100.0 mg/kg/injection, schedule: Q04DX003 (ip), vehicle: Klucel (hydroxypropylcellulose) (HPC)) is 98 % of control; the T/C (endpoint: mean survival time, dose: 200.0 mg/kg/injection, schedule: Q04DX003 (ip), vehicle: Klucel (hydroxypropylcellulose) (HPC)) was 96 % of control; the T/C (endpoint: mean survival time, dose: 400.0 mg/kg/injection, schedule: Q04DX003 (ip), vehicle: Klucel (hydroxypropylcellulose) (HPC)) was 96 % of control.
Turning to `CC1(C)OCC(C2CCC3(C)C4=CCC5C(C)(C)C(O)CCC5(C)C4CCC23C)CC(O)C1O` (centres undefined), the T/C reads like this: (endpoint: mean survival time, dose: 2.5 mg/kg/injection, schedule: Q01DX009 (ip), vehicle: Klucel (hydroxypropylcellulose) (HPC)) 101 % of control; (endpoint: mean survival time, dose: 5.0 mg/kg/injection, schedule: Q01DX009 (ip), vehicle: Klucel (hydroxypropylcellulose) (HPC)) 95 % of control; (endpoint: mean survival time, dose: 10.0 mg/kg/injection, schedule: Q01DX009 (ip), vehicle: Klucel (hydroxypropylcellulose) (HPC)) 97 % of control.
For the molecule `O=C1C2=C(C(=O)C3=C1C1CCC3C1)C1CCC2C1`, the T/C is, setting by setting: (endpoint: mean survival time, dose: 25.0 mg/kg/injection, schedule: Q04DX002 (ip), vehicle: saline with Tween-80) 105 % of control; (endpoint: mean survival time, dose: 50.0 mg/kg/injection, schedule: Q04DX002 (ip), vehicle: saline with Tween-80) 101 % of control; (endpoint: mean survival time, dose: 100.0 mg/kg/injection, schedule: Q04DX002 (ip), vehicle: saline with Tween-80) 108 % of control.
As to `S=P(N1CCOCC1)(N1CC1)N1CC1`, the T/C was 116 % of control (endpoint: mean survival time, dose: 10.0 mg/kg/injection, schedule: Q01DX007 (ip), vehicle: saline); 118 % of control (endpoint: mean survival time, dose: 10.0 mg/kg/injection, schedule: Q03DX003 (ip), vehicle: saline); 114 % of control (endpoint: mean survival time, dose: 10.0 mg/kg/injection, schedule: Q04DX003 (ip), vehicle: saline); 118 % of control (endpoint: mean survival time, dose: 12.5 mg/kg/injection, schedule: Q01DX Z (ip), vehicle: carboxymethylcellulose (CMC)); 172 % of control (endpoint: mean survival time, dose: 20.0 mg/kg/injection, schedule: Q01DX007 (ip), vehicle: saline); 171 % of control (endpoint: mean survival time, dose: 20.0 mg/kg/injection, schedule: Q01DX009 (ip), vehicle: saline). Also, the T/C by setting is: (endpoint: mean survival time, dose: 25.0 mg/kg/injection, schedule: Q01DX Z (ip), vehicle: carboxymethylcellulose (CMC)) 100 % of control; (endpoint: mean survival time, dose: 40.0 mg/kg/injection, schedule: Q01DX007 (ip), vehicle: saline) 86 % of control; (endpoint: mean survival time, dose: 40.0 mg/kg/injection, schedule: Q01DX009 (ip), vehicle: saline) 100 % of control; (endpoint: mean survival time, dose: 40.0 mg/kg/injection, schedule: Q03DX003 (ip), vehicle: saline) 223 % of control; (endpoint: mean survival time, dose: 40.0 mg/kg/injection, schedule: Q04DX003 (ip), vehicle: saline) 218 % of control.
For the molecule `CCc1ncc(C(C)(O)c2ccc(C)cc2)n1Cc1ccccc1` (centres undefined), the T/C is 92 % of control under setting [1], 90 % of control under setting [2] and 97 % of control under setting [3].
As to `Nc1cc(N)c2[nH]cnc2n1`, the T/C is, setting by setting: (endpoint: mean survival time, dose: 100.0 mg/kg/injection, schedule: Q01DX001 (ip), vehicle: other) 104 % of control; (endpoint: mean survival time, dose: 200.0 mg/kg/injection, schedule: Q01DX001 (ip), vehicle: other) 97 % of control; (endpoint: mean survival time, dose: 400.0 mg/kg/injection, schedule: Q01DX001 (ip), vehicle: other) 98 % of control.
`COc1ccc2c3c1OC1C(=O)C4CC5(c6c(O)ccc(O)c64)C(C2)N(C)CCC315` (centres undefined): the T/C reads like this: under setting [4], 86 % of control; under setting [5], 86 % of control.
With `CC([NH-])C(=O)O.CC([NH-])C(=O)O.CC([NH-])C(=O)O.[Co+3]` (centres undefined), the T/C is, setting by setting: (endpoint: mean survival time, dose: 6.25 mg/kg/injection, schedule: Q01DX009 (ip), vehicle: saline) 98 % of control; (endpoint: mean survival time, dose: 12.5 mg/kg/injection, schedule: Q01DX009 (ip), vehicle: saline) 112 % of control; (endpoint: mean survival time, dose: 25.0 mg/kg/injection, schedule: Q01DX009 (ip), vehicle: saline) 107 % of control; (endpoint: mean survival time, dose: 50.0 mg/kg/injection, schedule: Q01DX009 (ip), vehicle: saline) 124 % of control.
With `C(=N/NC1=NCCN1)/c1c2ccccc2c(/C=N\NC2=NCCN2)c2ccccc12`, the T/C was 152 % of control (endpoint: median survival time, dose: 0.37 mg/kg/injection, schedule: Q01DX009 (ip), vehicle: suspension in saline); 170 % of control (endpoint: median survival time, dose: 1.56 mg/kg/injection, schedule: Q01DX009 (ip), vehicle: saline); 172 % of control (endpoint: median survival time, dose: 3.0 mg/kg/injection, schedule: Q01DX009 (ip), vehicle: suspension in saline); 370 % of control (endpoint: median survival time, dose: 3.12 mg/kg/injection, schedule: Q01DX009 (ip), vehicle: saline); 172 % of control (endpoint: median survival time, dose: 6.25 mg/kg/injection, schedule: Q01DX009 (ip), vehicle: saline); 164 % of control and 180 % of control (endpoint: median survival time, dose: 12.5 mg/kg/injection, schedule: Q01DX009 (ip), vehicle: saline). Moreover, the T/C (endpoint: median survival time, dose: 25.0 mg/kg/injection, schedule: Q01DX009 (ip), vehicle: saline) was 176 % of control and the T/C (endpoint: median survival time, dose: 48.0 mg/kg/injection, schedule: Q01DX009 (ip), vehicle: suspension in saline) is 113 % of control.
Regarding `CCOC(=O)C(C(C)=O)C1=C(Cl)C(=O)c2ccccc2C1=O` (centres undefined), the T/C is 95 % of control (endpoint: mean survival time, dose: 75.0 mg/kg/injection, schedule: Q01DX001 (ip), vehicle: other); 94 % of control (endpoint: mean survival time, dose: 150.0 mg/kg/injection, schedule: Q01DX001 (ip), vehicle: other); 92 % of control (endpoint: mean survival time, dose: 300.0 mg/kg/injection, schedule: Q01DX001 (ip), vehicle: other).
As to `C=C1C[C@@H](O)[C@H](O)[C@@]2(C)C[C@@H]3OC(=O)C(=C)[C@@H]3C[C@H]12`, the T/C under setting [1] is 102 % of control.
For `[Cl][Pt+2][Cl].[NH-]c1ccc(F)cc1.[NH-]c1ccc(F)cc1`, the T/C was 102 % of control (endpoint: mean survival time, dose: 3.13 mg/kg/injection, schedule: Q04DX003 (ip), vehicle: distilled water + Tween-80); 104 % of control (endpoint: mean survival time, dose: 6.25 mg/kg/injection, schedule: Q04DX003 (ip), vehicle: distilled water + Tween-80); 102 % of control (endpoint: mean survival time, dose: 12.5 mg/kg/injection, schedule: Q04DX003 (ip), vehicle: distilled water + Tween-80); 108 % of control (endpoint: mean survival time, dose: 25.0 mg/kg/injection, schedule: Q04DX003 (ip), vehicle: distilled water + Tween-80); 108 % of control (endpoint: mean survival time, dose: 50.0 mg/kg/injection, schedule: Q04DX003 (ip), vehicle: distilled water + Tween-80); 93 % of control (endpoint: mean survival time, dose: 100.0 mg/kg/injection, schedule: Q04DX003 (ip), vehicle: distilled water + Tween-80).
With `c1ccc(CN2CN(Cc3ccccc3)CN(Cc3ccccc3)C2)cc1`, the T/C is, setting by setting: under setting [1], 100 % of control; under setting [6], 89 % of control; under setting [2], 100 % of control; under setting [4], 89 % of control; under setting [3], 97 % of control; under setting [5], 98 % of control.
As for `CCN(CC)c1cccc(O)c1`, the T/C reads like this: under setting [7], 92 % of control; under setting [1], 98 % of control.
With `O=[N+]([O-])c1cccc(-c2nn[nH]n2)c1`, the T/C under setting [8] was 93 % of control; the T/C under setting [1] was 98 % of control; the T/C under setting [6] is 97 % of control; the T/C under setting [9] is 104 % of control; the T/C under setting [2] was 117 % of control; the T/C under setting [4] was 97 % of control. In addition, the T/C by setting is: under setting [10], 88 % of control; under setting [3], 101 % of control; under setting [5], 103 % of control.
Regarding `O=c1[nH]c(SCc2ccccc2)nc(Cc2ccccc2)c1CCO`, the T/C under setting [6] is 95 % of control, the T/C under setting [4] is 94 % of control and the T/C under setting [5] was 90 % of control.
Turning to `CC(=O)OC1CCCCC1C` (centres undefined), the T/C was 105 % of control under setting [1]; 105 % of control under setting [6]; 100 % of control under setting [2]; 110 % of control under setting [4]; 102 % of control under setting [5].
As for `COC1OC(CO)C(O)C(O)C1O` (centres undefined) (tested in a mixture with another compound), the T/C runs as follows: under setting [8], 90 % of control; under setting [9], 90 % of control; under setting [10], 92 % of control.
With `CN(C)N=Nc1c(F)cc(F)cc1F`, the T/C by setting is: (endpoint: mean survival time, dose: 25.0 mg/kg/injection, schedule: Q01DX009 (ip), vehicle: saline with Tween-80) 98 % of control; under setting [7], 102 % of control; under setting [2], 90 % of control.
As to `CC(=O)NCCNC(C)=O`, the T/C is 91 % of control (endpoint: mean survival time, dose: 100.0 mg/kg/injection, schedule: Q04DX003 (ip), vehicle: saline); 100 % of control (endpoint: mean survival time, dose: 200.0 mg/kg/injection, schedule: Q04DX003 (ip), vehicle: saline); 91 % of control (endpoint: mean survival time, dose: 400.0 mg/kg/injection, schedule: Q04DX003 (ip), vehicle: saline).
